Test results from ChEMBL document CHEMBL1127006, “QSAR study of benzoquinolinones as inhibitors of human type 1 5--reductase” (Bioorg Med Chem Lett, 1993).

Molecular target: T1, 3-oxo-5-alpha-steroid 4-dehydrogenase 1 (Homo sapiens, UniProt P18405)
T1 sequence (P18405 whole entry): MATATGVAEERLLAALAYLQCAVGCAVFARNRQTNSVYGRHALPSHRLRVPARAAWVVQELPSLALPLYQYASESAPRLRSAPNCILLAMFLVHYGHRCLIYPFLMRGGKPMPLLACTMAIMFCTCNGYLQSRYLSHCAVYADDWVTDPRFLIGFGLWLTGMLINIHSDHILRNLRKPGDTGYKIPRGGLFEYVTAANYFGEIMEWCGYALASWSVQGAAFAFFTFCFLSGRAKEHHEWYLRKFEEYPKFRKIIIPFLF
Assay: In vitro inhibitory concentration required to inhibit Steroid 5-alpha-reductase type 1 in cultured Hs 68 human foreskin fibroblast cells
Assay type: cell-based
Conditions: read-out: Log 1/IC50 (converted)

Row | IC50 [µM] | SMILES
1 | 0.562 | CN1C(=O)CCC2c3ccccc3CCC21 (stereo unspecified)
2 | 0.115 | CN1C(=O)CCC2(C)c3ccc(F)cc3CCC12 (stereo unspecified)
3 | 0.0347 | CN1C(=O)CCC2c3ccc(Br)cc3CCC21 (stereo unspecified)
4 | 0.0603 | CN1C(=O)CCC2=C1CCc1cc(Br)ccc12
5 | 1 | CN1C(=O)CCC2(C)c3ccccc3CCC12 (stereo unspecified)
6 | 1 | CN1C(=O)CCC2=C1CCc1ccccc12
7 | 0.0794 | CN1C(=O)CCC2c3ccc(I)cc3CCC21 (stereo unspecified)
8 | 0.0891 | CN1C(=O)CCC2c3ccc(C(F)(F)F)cc3CCC21 (stereo unspecified)
9 | 0.0347 | CN1C(=O)CCC2c3ccc(F)cc3CCC21 (stereo unspecified)
10 | 0.174 | CN1C(=O)CCC2=C1CCc1cc(Cl)ccc12
11 | 0.0324 | Cc1ccc2c(c1)CCC1=C2CCC(=O)N1C
12 | 0.151 | CN1C(=O)CCC2=C1CCc1cc(F)ccc12
13 | 0.115 | COc1ccc2c(c1)CCC1C2CCC(=O)N1C (stereo unspecified)
14 | 0.0324 | CN1C(=O)CCC2(C)c3ccc(Cl)cc3CCC12 (stereo unspecified)
15 | 0.0324 | Cc1ccc2c(c1)CCC1C2CCC(=O)N1C (stereo unspecified)
16 | 0.00794 | CN1C(=O)CCC2c3ccc(Cl)cc3CCC21 (stereo unspecified)
